Test results reported in paper PMC4643876, “Picomolar Inhibition of Plasmepsin V, an Essential Malaria Protease, Achieved Exploiting the Prime Region” (PLoS ONE, 2015).
Where “and” joins values, the source holds several entries; their conditions need not be identical. Equal entries are not always repeated. Where two headings read alike, the source gives them in different places. * marks the point of attachment. DABCYL = CN(C)c1ccc(/N=N/c2ccc(C(=O)*)cc2)cc1; EDANS = O=S(=O)(O)c1cccc2c(NCCN*)cccc12

Key:
Plasmepsin V (PmV) [1] = biological target: T1, Plasmepsin V (PmV) (Plasmodium falciparum, UniProt Q8I6Z5); assay: PmV inhibition, fluorimetric PExEl cleavage assay; assay type: biochemical
T1 construct: PmV was purified directly from parasites; made in house
Method: Saponin was added to culture to a final 0.05%; parasites were recovered via centrifugation at 4°C after 5 min of incubation on ice; parasite pellets were then washed twice in cold PBS and either immediately lysed or stored at -80°C until lysis. Parasites were lysed via three pulses of ultra-sonication of 10 sec duration, in PBS containing 0.5% Triton-X100 (TX-100). […] Quick washes of the resin were performed either in batches, or over columns, to remove unbound cellular material (four with ice-cold 0.5% TX-100 in PBS and a final one with cold PBS). Resin-bound PmV was stored in PBS at 4°C and used within 2–3 weeks, larger batches had Glycerol added to them, up to 10%, and were stored at -20°C for up to 5 months. […] Quality and purity of PmV batches were routinely confirmed by protein electrophoresis. Quantification of PmV was performed via densitometry analysis of stained protein SDS-PAGE gels relative to BSA standard curves.
(§1) PExEl cleavage activity was monitored by fluorimetric measurement of PExEl cleavage, as previously reported. […] PmV activity was performed at 37°C in 50 mM Tris-Maleate, pH 6.5, 50 mM NaCl, 0.05% TX-100, 2 mM DTT. Assays were routinely conducted in triplicate. Bead-bound enzyme was added to the reaction using ‘end-cut’ micropipette tips in order to facilitate sampling the suspension.
Inhibitory activities were measured in the presence of a substrate concentration of 3 μM by serial dilution of each compound in triplicates. […] Titration curves of the inhibitors were routinely composed of eleven points from 10 μM to 0.1 pM. PmV concentration was kept in the order of low picomolar (≤10 pM). […] Analysis of the half inhibitory activity (IC50) was performed by sigmoidal interpolation of the starting velocities of the hydrolytic reactions for each condition. Starting velocities were calculated on the initial linear range of the product progression curves. […] Data are presented with error bars indicating the standard deviation of three independent activity curves.

[2] = test system: Plasmodium falciparum strain 3D7; assay: Parasite growth inhibition by flow cytometry, strain 3D7; assay type: cell-based; conditions: asynchronous 3D7 cultures, about 4 days, 0.195–200 μM, flow cytometry
PmV-GFP = biological target: T2, PmV-GFP (Plasmodium falciparum, UniProt Q8I6Z5); assay: Pull-down / co-precipitation of PmV-inhibitor complexes from DC6 lysates; assay type: binding
T2 construct: parasite cellular lysates of DC6 a clone that constitutively expresses PmV-GFP; expressed in transfected cells; host or cells: Plasmodium falciparum clone DC6 (3D7-derived; PmV-GFP under the native PmV promoter), crude lysate
Method: Pull-down experiments were performed using parasite cellular lysates of DC6 a clone that constitutively expresses PmV-GFP [15]. […] [i] […] An anti-GFP antibody, 3E6, was added with protein A-agarose as above described and incubated 1 h at 4°C, with gentle agitation. The resin was washed 3 times with cold PBS and then boiled in Laemmli sample buffer for later biotin detection in a dot-blot format. [ii] […] Incubation was carried out for 1 h at 4°C gently maintaining the beads in suspension. Then the resin was washed 3 times with cold PBS and boiled in Laemmli sample buffer for subsequent protein western blot analysis of the pull-down material.

[3] = pH 7.4
clone DC6 = assay: Growth curve analysis over 10 days, clone DC6; assay type: cell-based, Plasmodium falciparum; parameters: growth rate (r): unit not given here; conditions: 0.75 μM Shield-1
Text: (§2) Fig 14 PmV-GFP-DD clone G6 generation and characterization. (A) Creation of a PmV-GFP-DD chimera by homologous recombination. […] The plasmid contains sequence from the PmV ORF 3’ end in frame with GFP-DD [24]. Relative positions of BsrGI restriction sites (vertical bars) and the probe are indicated. (B) Southern blot of BsrGI-restricted DNA from the parental strain 3D7, the 3 drug cycles (Selection I, II, III), 3 of the isolated clones, among which G6 is number 3, and the transfected plasmid (at the far right) is shown. Arrows: endogenous gene (blue), and modified PmV locus (green). (C) Live microscopy of the clone expressing the cytosolic YFP-DD chimera (via episomally maintained plasmid) and G6 in presence or absence of 0.5 μM Shield-1. Top to Bottom: bright field (grey), Hoechst (blue), fluorescent proteins (green), Lysotracker (red), merges of the blue and green channels and of all three channels. (D) Western blot of total lysates of parasites at diverse concentrations of Shield-1 (0–1 μM): clone DC6, clone G6 and 3D7 expressing YFP-DD. PmV was detected with both anti-GFP and anti-PmV. BiP detection served as loading control. (E) Live microscopy of the G6 clone expressing the PmV-GFP-DD chimera at various Shield-1 concentrations (0–1 μM). (F) PmV levels from DC6 (green) and G6 (red) were quantified from blot (panel D) and plotted as ratio of PmV to BiP. The last point of the ratio is affected by a reduced BiP expression in 1 μM Shield-1. This is possibly due to the level of toxicity of this molecule at high concentrations. (G) Flow cytometry analysis of the GFP signal of PmV-GFP-DD (clone G6) in presence (green line) or absence (red line) of 0.75 μM Shield-1 in respect of PmV-GFP (clone DC6) (black line). The cellular levels of PmV-GFP(±DD) are similar in the presence 0.75 μM Shield-1 while PmV-GFP-DD is about 4 times less than PmV-GFP in the absence of Shield-1. (H) Growth curve analysis over 10 days for PmV-GFP-DD and DC6 in the presence or absence of 0.75 μM Shield-1.

clone G6 (PmV-GFP-DD) = assay: Growth curve analysis over 10 days, clone G6; assay type: cell-based, Plasmodium falciparum; parameters: growth rate (r): unit not given here; conditions: 0.75 μM Shield-1
Text: as §2

Plasmepsin V (PmV) [4] = biological target: T1, Plasmepsin V (PmV); assay: PmV steady-state kinetics of substrate hydrolysis; assay type: biochemical
Method: as §1
Steady-state measurements of PmV substrate hydrolysis were analyzed assuming the widely accepted aspartic protease mechanism, E + S → ES → ET* → EP → E + P, where P is the product of the reaction; S is the substrate; E is the free enzyme; ES, ET* and EP denote the enzyme-substrate, the transition state and enzyme-product adducts, respectively. The measurement of steady-state velocity of product formation, v = d[P]/dt, yielded catalytic constants according to the classical Michaelis-Menten equation v = e * kcat *[S] / ([S] + K M), where e is enzyme concentration. In our experimental conditions the fluorescence of HETQ-EDANS (AnaSpec), the reaction product (P), was quantified by titration. PmV kinetics parameters were calculated using non-linear curve-fitting analyses from SigmaPlot on the basis of measurements with multiple substrate concentrations monitored until the completion of the reaction. […]

[5] = 3 μM HRPII-PExEl substrate, averages of not less than three inhibition curves, read-out: IC50

T1 sequence (Q8I6Z5 whole entry): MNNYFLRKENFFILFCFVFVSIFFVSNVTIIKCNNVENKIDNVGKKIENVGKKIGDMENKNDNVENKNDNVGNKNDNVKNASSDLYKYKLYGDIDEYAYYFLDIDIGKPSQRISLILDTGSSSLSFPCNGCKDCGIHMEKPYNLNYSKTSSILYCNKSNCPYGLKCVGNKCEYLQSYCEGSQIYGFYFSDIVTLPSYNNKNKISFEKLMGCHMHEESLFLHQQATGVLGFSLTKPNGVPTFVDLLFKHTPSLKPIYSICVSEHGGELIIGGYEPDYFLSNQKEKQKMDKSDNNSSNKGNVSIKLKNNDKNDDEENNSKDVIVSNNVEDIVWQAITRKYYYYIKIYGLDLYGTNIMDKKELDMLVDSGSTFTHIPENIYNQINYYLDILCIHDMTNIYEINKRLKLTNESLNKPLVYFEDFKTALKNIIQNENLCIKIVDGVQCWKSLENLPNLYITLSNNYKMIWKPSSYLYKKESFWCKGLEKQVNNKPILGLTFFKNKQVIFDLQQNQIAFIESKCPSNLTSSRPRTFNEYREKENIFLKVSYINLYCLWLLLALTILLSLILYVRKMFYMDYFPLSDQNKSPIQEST
T2 sequence (Q8I6Z5 whole entry): as above

Row | Compound | Ki (Plasmepsin V (PmV) [1]) | IC50 (Plasmepsin V (PmV) [1]; [5]) | LD50 growth inhibition [2] | further results
1 | CC(C)C[C@H](NC(=O)[C@@H](N)CCCNC(=N)N)C(=O)N[C@@H](CC(C)C)C(O)CN[C@@H](C)C(=O)N[C@@H](CCC(=O)O)C(=O)N[C@@H](C)C(N)=O (mixture of isomers) [Compound 1] | 0.2 nM | 0.37 nM | > 200 µM | IC50 (Plasmepsin V (PmV) [1]; 3 μM substrate, read-out: IC50): 0.367 nM; IC50 (Plasmepsin V (PmV) [1]; inhibitor added after the reaction was initiated, read-out: IC50): 0.329 nM; IC50 (Plasmepsin V (PmV) [1]; pre-mixing the enzyme with inhibitor, read-out: IC50): 0.367 nM; greater inhibition efficiency relative to WEHI916 (Plasmepsin V (PmV) [1]; side-by-side comparison): ~ 100 fold; competition of Compound 36 binding to PmV (PmV-GFP; 50 μM competitor): negatively affects the interaction between Compound 36 and PmV; logD [3]: -4.28
2 | CC(C)C[C@H](NC(=O)[C@@H](N)CCCNC(=N)N)C(=O)N[C@@H](CC(C)C)C(O)CN[C@@H](C)C(=O)N[C@@H](CCC(=O)O)C(=O)N[C@@H](C)C(=O)O (mixture of isomers) [Compound 4] | 0.7 nM | 1.31 nM | > 200 µM | IC50 increase compared to Compound 1 (Plasmepsin V (PmV) [1]): 1.3–3.5 fold
3 | CC[C@H](C)[C@H](NC(=O)[C@@H](N)CCCNC(=N)N)C(=O)N[C@@H](CC(C)C)C(O)CN[C@@H](C)C(=O)N[C@@H](CCC(=O)O)C(=O)N[C@@H](C)C(N)=O (mixture of isomers) [Compound 5] | 0.35 nM | 0.65 nM | > 200 µM | 
4 | CC[C@H](C)[C@H](NC(=O)[C@@H](N)CCCNC(=N)N)C(=O)N[C@@H](CC(C)C)C(O)CN[C@@H](C)C(=O)N[C@@H](CCC(=O)O)C(=O)N[C@@H](C)C(=O)O (mixture of isomers) [Compound 6] | 1.16 nM | 2.16 nM | > 200 µM | IC50 increase compared to Compound 5 (Plasmepsin V (PmV) [1]): 1.3–3.5 fold
5 | CSCC[C@H](N)C(=O)N[C@@H](CC(C)C)C(=O)N[C@@H](CC(C)C)C(O)CN[C@@H](C)C(=O)N[C@@H](CCC(=O)O)C(=O)N[C@@H](C)C(=O)O (mixture of isomers) [Compound 16] |  | > 10000 nM | > 200 µM | IC50 (Plasmepsin V (PmV) [1]; 3 μM substrate, tested up to 10 μM): completely inactive
6 | CC(=O)N[C@@H](CCCNC(=N)N)C(=O)N[C@@H](CC(C)C)C(=O)N[C@@H](CC(C)C)C(O)CN[C@@H](C)C(=O)N[C@@H](CCC(N)=O)C(=O)N[C@@H](C)C(N)=O (mixture of isomers) [Compound 35] | 63.5 nM | 118 nM | 16.5 μM and ~ 16.5 μM | 
7 | CC(C)C[C@H](NC(=O)[C@@H](N)CCCNC(=N)N)C(=O)N[C@@H](CC(C)C)[C@@H](O)CN[C@@H](C)C(=O)N[C@@H](CCC(N)=O)C(=O)N[C@@H](C)C(N)=O [Compound 8a] | 0.83 nM | 1.55 nM | 64.1 µM | IC50 increase compared to Compound 1 (Plasmepsin V (PmV) [1]): ~ 4 fold
8 | CC(C)C[C@H](NC(=O)[C@@H](N)Cc1c[nH]c2ccccc12)C(=O)N[C@@H](CC(C)C)[C@@H](O)CN[C@@H](C)C(=O)N[C@@H](CCC(=O)O)C(=O)N[C@@H](C)C(N)=O [Compound 15a] | 1380 nM | 2570 nM | ~ 100.5 μM | 
9 | CC(C)C[C@H](NC(=O)[C@@H](N)CCC(N)=O)C(=O)N[C@@H](CC(C)C)[C@@H](O)CN[C@@H](C)C(=O)N[C@@H](CCC(=O)O)C(=O)N[C@@H](C)C(=O)O [Compound 17a] | 2360 nM | 4390 nM | > 200 µM | 
10 | CC(C)C[C@H](NC(=O)[C@H](CCCNC(=N)N)NC(=O)CCCNC(=O)CCCNC(=O)CCCC[C@@H]1SC[C@@H]2NC(=O)N[C@@H]21)C(=O)N[C@@H](CC(C)C)C(O)CN[C@@H](C)C(=O)N[C@@H](CCC(N)=O)C(=O)N[C@@H](C)C(=O)O (stereo partly drawn) [Compound 36] |  |  |  | interaction with PmV in pull-down / immuno-precipitation (PmV-GFP; DC6 lysate, 50 μM or streptavidin-resin bound): confirmed the interaction between our inhibitor and PmV
11 | CCCCCCCC(=O)N[C@@H](CCCNC(=N)N)C(=O)N[C@@H](CC(C)C)C(=O)N[C@@H](CC(C)C)[C@@H](O)CN[C@@H](Cc1ccc(O)cc1)C(=O)N[C@@H](CCC(=O)O)C(=O)N[C@@H](C)C(N)=O [Compound 37a] | 0.01 nM | 0.023 nM | > 200 µM | fold more active than parent compound 7a (Plasmepsin V (PmV) [1]): more than 50 fold; IC50 (Plasmepsin V (PmV) [1]; 3 μM substrate, read-out: IC50): ~0.023 nM
12 | O=c1oc2c(O)c(O)cc3c(=O)oc4c(O)c(O)cc1c4c23 [Ellagic acid, reference compound] |  |  | 2.4 µM | 
13 | CC[C@H](C(=O)N1CCCC[C@H]1C(=O)O[C@H](CCc1ccc(OC)c(OC)c1)c1cccc(OCCN2CCOCC2)c1)c1cc(OC)c(OC)c(OC)c1 [Shield-1] |  |  |  | doubling time (T) (clone DC6): 34.83 h; growth constant (k) (clone DC6): 0.0199; growth rate (r) (clone DC6): 2.01; doubling time (T) (clone G6 (PmV-GFP-DD)): 34.15 h; growth constant (k) (clone G6 (PmV-GFP-DD)): 0.0203; growth rate (r) (clone G6 (PmV-GFP-DD)): 2.05
14 | DABCYL-LNKRLLHETQ-EDANS ({DABCYL}-LNKRLLHETQ-{EDANS}; SMILES CC(C)C[C@H](NC(=O)c1ccc(/N=N/c2ccc(N(C)C)cc2)cc1)C(=O)N[C@@H](CC(N)=O)C(=O)N[C@@H](CCCCN)C(=O)N[C@@H](CCCNC(=N)N)C(=O)N[C@@H](CC(C)C)C(=O)N[C@@H](CC(C)C)C(=O)N[C@@H](Cc1c[nH]cn1)C(=O)N[C@@H](CCC(=O)O)C(=O)N[C@H](C(=O)N[C@@H](CCC(N)=O)C(=O)NCCNc1cccc2c(S(=O)(=O)O)cccc12)[C@@H](C)O) [HRPII-derived fluorogenic substrate of PmV] |  |  |  | Km (Plasmepsin V (PmV) [4]): 3.48 µM; K M (Plasmepsin V (PmV) [4]; substrate 0.19 to 6 μM): 3.48 (±0.7) 10^−6 M
